Holding throughout (assay type): cell-based
One assay has as its system primary human B cells. Kind of assay: B cell activation assay (CD69 on anti-IgM stimulated B cells). As to conditions: AUC of dose response curve (10 μM to 1 nM) of CD69 MFI normalized to DMSO control. In outline:
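Negatively selected PBMC-derived B cells (>95% CD20+) treated with Cbl-b inhibitors from 10 μM to 1 nM (DMSO <0.5%) and stimulated with anti-IgM for 20 h at 37° C. CD69 MFI on CD20+ IgD+ cells by flow cytometry; dose-response AUC normalized to DMSO plus 2.5 μg/mL anti-IgM-F(ab′)2, binned A-D.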

Assay [1] has as its system T-cell. Kind of assay: CD25 cell surface staining on T-cells stimulated with anti-CD3 antibody alone (Biological Example 2). As to conditions: primary human total T-cells, baseline = anti-CD3/anti-CD28 stimulated cells without inhibitor, read-out: CD25 staining, Anti-CD3 stimulation, fold change over baseline; for fold induction at 1 µM: 1 μM compound; for fold induction at 8 µM: 8 μM compound.

In a further assay the test system is anergic human T-cells. Kind of assay: Anergic T-cell activation assessed by IFNγ secretion (ionomycin-induced anergy). Particulars: anergic T-cells re-challenged with anti-CD3 and anti-CD28 for 24 hours, read-out: IFNγ Fold change from baseline. A digest of the protocol:
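Human primary T-cells (>95% CD3+) were activated with anti-CD3/anti-CD28 for 2 days, rested 3 days, then made anergic with ionomycin for 18-24 h. Compound (e.g. 10, 1.11, 0.37 μM) was added for 1 h before 24 h anti-CD3/CD28 re-challenge; IFNγ by ELISA or Luminex as fold over untreated anergic baseline, binned A ≤2.50, B 2.51-4.00, C >4.01.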

Assay [2] relates to T-cell. Kind of assay: IL-2 secretion from T-cells stimulated with anti-CD3 antibody alone (Biological Example 2). As to conditions: primary human total T-cells, read-out: IL-2 secretion, Anti-CD3 stimulation, fold change over baseline; for fold induction at 1 µM: 1 μM compound; for fold induction at 8 µM: 8 μM compound.

Consider `Cn1cnnc1C(F)(F)[C@](C)(F)c1cccc(N2Cc3c(cc(CN4CC[C@@H](C#N)C4)cc3C(F)(F)F)C2=O)c1` [Compound 455, (R)-1-((3-oxo-2-(3-((R)-1,1,2-trifluoro-1-(4-methyl-4H-1,2,4-triazol-3-yl)propan-2-yl)phenyl)-7-(trifluoromethyl)isoindolin-5-yl)methyl)pyrrolidine-3-carbonitrile], for which the “CD69 MFI AUC” value with primary human B cells is “C (C indicates 1.01-1.50)”. Besides, in the assay with T-cell [1], the fold induction at 1 µM was in the range of 0.801 to 1 and the fold induction at 8 µM is more than 1. Also, in the assay on anergic human T-cells, the fold induction at 0.37 µM was not above 2.5, the fold induction at 1.11 µM lay within 2.51 to 4 and the fold induction at 10 µM is more than 4.01. Further, in the assay on T-cell [2], the fold induction at 1 µM is 0.151 to 0.2 and the fold induction at 8 µM was more than 0.201.
Turning to `C[C@H](Cc1nncn1C)c1cccc(NC(=O)c2cc3cc(N4CCNCC4)ccc3cn2)c1` [Compound 472, N-{3-[(2R)-1-(4-methyl-4H-1,2,4-triazol-3-yl)propan-2-yl]phenyl}-6-(piperazin-1-yl)isoquinoline-3-carboxamide], in the assay with primary human B cells, the “CD69 MFI AUC” value was “C (C indicates 1.01-1.50)”. Also, in the assay on T-cell [1], the fold induction at 1 µM is 0.801 to 1 and the fold induction at 8 µM fell in the range of 0.801 to 1. In the assay on anergic human T-cells, the fold induction at 0.37 µM is not above 2.5, the fold induction at 1.11 µM is not above 2.5 and the fold induction at 10 µM was in the range of 2.51 to 4. In addition, in the assay with T-cell [2], the fold induction at 1 µM was 0.101 to 0.15 and the fold induction at 8 µM lay within 0.101 to 0.15.
As to `Cn1cnnc1CC1(c2cccc(NC(=O)c3cc(CN4CCC5(CC5)C4)cc(C4CC4)n3)c2)COC1` [Compound 519, 4-((5-azaspiro[2.4]heptan-5-yl)methyl)-6-cyclopropyl-N-(3-(3-((4-methyl-4H-1,2,4-triazol-3-yl)methyl)oxetan-3-yl)phenyl)picolinamide], the “CD69 MFI AUC” value with primary human B cells is recorded as “D (D indicates ≥1.51)”. The fold induction at 1 µM in the assay on T-cell [1] was more than 1. In addition, in the assay with anergic human T-cells, the fold induction at 0.37 µM is more than 4.01, the fold induction at 1.11 µM was more than 4.01 and the fold induction at 10 µM is more than 4.01. In the assay with T-cell [2], the fold induction at 1 µM was more than 0.201.
For `Cn1cnnc1CC1(c2cccc(N3Cc4c(cc(CN5CCC6(CC6)C5)cc4C(F)(F)F)C3=O)c2)COC1` [Compound 520, 6-((5-azaspiro[2.4]heptan-5-yl)methyl)-2-(3-(3-((4-methyl-4H-1,2,4-triazol-3-yl)methyl)oxetan-3-yl)phenyl)-4-(trifluoromethyl)isoindolin-1-one], the “CD69 MFI AUC” value with primary human B cells is given as “D (D indicates ≥1.51)”. For the same compound, the fold induction at 1 µM in the assay on T-cell [1] was more than 1. Besides, in the assay on anergic human T-cells, the fold induction at 0.37 µM was not above 2.5, the fold induction at 1.11 µM lay within 2.51 to 4 and the fold induction at 10 µM is more than 4.01. Also, the fold induction at 1 µM with T-cell [2] was more than 0.201.

Source of the values: patent US20220324835A1 (Nurix Therapeutics, Inc., priority 2018, published 2022).
